According to PMC2966823 (Journal of the American Chemical Society, 2010):

Columns and labels:
[1] = target: cAMP dependent protein kinase A, catalytic subunit α (PKA) (Homo sapiens, UniProt P17612); experiment: split-luciferase three-hybrid displacement of Jun-staurosporine, […] inhibitor; assay type: cell-based; conditions: read-out: % inhibition at 10 μM
FGFR1/FLT2 = FGFR1/FLT2 (Homo sapiens, UniProt P11362); experiment: as above; assay type: cell-based; conditions: read-out: % inhibition at 10 μM
Chain of FGFR1/FLT2 (P11362 478-767 limits assumed): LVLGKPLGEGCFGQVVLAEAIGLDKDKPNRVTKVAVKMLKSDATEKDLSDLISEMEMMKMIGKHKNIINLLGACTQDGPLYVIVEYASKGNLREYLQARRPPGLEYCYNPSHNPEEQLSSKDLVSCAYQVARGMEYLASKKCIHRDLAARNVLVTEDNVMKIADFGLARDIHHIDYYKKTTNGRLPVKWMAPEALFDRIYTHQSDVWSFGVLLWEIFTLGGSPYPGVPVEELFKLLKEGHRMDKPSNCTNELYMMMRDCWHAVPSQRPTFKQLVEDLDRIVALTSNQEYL

SMILES | inhibition at 10 µM [1] [%] | inhibition at 10 µM (FGFR1/FLT2) [%]
O=S(=O)(NCCNC/C=C/c1ccc(Br)cc1)c1cccc2cnccc12 [compound 5, H89] | 67 | –
CC(C)[C@H](CO)Nc1nc(Nc2cc(N)cc(Cl)c2)c2ncn(C(C)C)c2n1 [compound 6, aminopurvalanol A] | – | 68
CC(C)[C@H](CO)Nc1nc(Nc2ccc(C(=O)O)c(Cl)c2)c2ncn(C(C)C)c2n1 [compound 8, purvalanol B] | – | 58
